In ChEMBL document CHEMBL4732070, “Design, synthesis and biological assessment of new selective COX-2 inhibitors including methyl sulfonyl moiety” (Eur J Med Chem, 2021):
pIC50: −log10 of the molar value.

Tests used:
[1] = biological target: T1, Prostaglandin G/H synthase 1 (Homo sapiens, UniProt P23219); experiment: Inhibition of COX-1 (unknown origin) using arachidonic acid as substrate at 100 uM measured after 10 mins by fluorometric based multimode microplate reader relative to control
[2] = biological target: T1, Prostaglandin G/H synthase 1; experiment: Inhibition of COX-1 (unknown origin) using arachidonic acid as substrate measured after 10 mins by fluorometric based multimode microplate reader
[3] = biological target: T1, Prostaglandin G/H synthase 1; experiment: Inhibition of COX-1 (unknown origin) using arachidonic acid as substrate at 1000 uM measured after 10 mins by fluorometric based multimode microplate reader relative to control

T1 sequence (P23219 whole entry): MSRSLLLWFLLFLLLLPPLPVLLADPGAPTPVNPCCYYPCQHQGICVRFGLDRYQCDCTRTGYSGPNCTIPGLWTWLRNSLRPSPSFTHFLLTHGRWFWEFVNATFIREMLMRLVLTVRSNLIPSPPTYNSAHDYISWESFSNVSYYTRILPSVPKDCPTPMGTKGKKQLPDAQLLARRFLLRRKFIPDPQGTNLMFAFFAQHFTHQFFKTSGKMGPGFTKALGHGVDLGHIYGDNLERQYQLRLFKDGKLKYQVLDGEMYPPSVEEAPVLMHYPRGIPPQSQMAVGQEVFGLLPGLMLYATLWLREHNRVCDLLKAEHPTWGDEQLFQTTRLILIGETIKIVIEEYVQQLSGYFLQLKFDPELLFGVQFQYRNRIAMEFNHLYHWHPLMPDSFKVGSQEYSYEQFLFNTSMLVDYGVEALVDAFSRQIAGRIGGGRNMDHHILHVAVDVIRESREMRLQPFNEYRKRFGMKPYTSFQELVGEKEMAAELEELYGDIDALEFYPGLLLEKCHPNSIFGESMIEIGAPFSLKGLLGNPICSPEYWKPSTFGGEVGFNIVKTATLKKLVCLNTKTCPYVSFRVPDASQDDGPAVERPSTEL

Row | inhibition [1] [%] | pIC50 [2] | inhibition [3] [%] | Compound
1 | 32.2 | < 3.00 | 48.9 | CS(=O)(=O)c1ccc(-c2csc(N/N=C/c3ccc(O)cc3)n2)cc1
2 | 41.2 | < 4.00 | 61.3 | COc1ccc(/C=N/Nc2nc(-c3ccc(S(C)(=O)=O)cc3)cs2)cc1O
3 | 40.8 | < 4.00 | 57.4 | COc1cccc(/C=N/Nc2nc(-c3ccc(S(C)(=O)=O)cc3)cs2)c1OC
4 | 40.9 | < 4.00 | 66.3 | CS(=O)(=O)c1ccc(-c2csc(N/N=C/c3cccc(O)c3)n2)cc1
5 | 32.3 | < 3.00 | 43.3 | COc1cc(/C=N/Nc2nc(-c3ccc(S(C)(=O)=O)cc3)cs2)cc(OC)c1O
6 | 43 | < 4.00 | 53 | COc1ccc(O)c(/C=N/Nc2nc(-c3ccc(S(C)(=O)=O)cc3)cs2)c1
7 | 31.4 | < 3.00 | 47.1 | CS(=O)(=O)c1ccc(-c2csc(N/N=C/c3ccc(O)cc3O)n2)cc1
8 | 35 | < 4.00 | 60 | COc1ccc(OC)c(/C=N/Nc2nc(-c3ccc(S(C)(=O)=O)cc3)cs2)c1
9 | 89.4 | – | – | CC(C)Cc1ccc(C(C)C(=O)O)cc1 (configuration not stated)
10 | 40 | < 4.00 | 55.6 | COc1ccc(/C=N/Nc2nc(-c3ccc(S(C)(=O)=O)cc3)cs2)cc1OC
11 | 35.8 | < 3.00 | 45.7 | COc1cc(/C=N/Nc2nc(-c3ccc(S(C)(=O)=O)cc3)cs2)cc(OC)c1OC
12 | 27.7 | < 3.00 | 44.6 | COc1ccc(/C=N/Nc2nc(-c3ccc(S(C)(=O)=O)cc3)cs2)c(OC)c1
13 | 30.8 | < 3.00 | 43.1 | COc1ccccc1/C=N/Nc1nc(-c2ccc(S(C)(=O)=O)cc2)cs1
